We go through one substance from patent publication US6815421B1, “Polypeptides for use in ameliorating effects of aging in mammals” (Osteopharm Inc., priority 2001, dated 2004).

The assay can be described thus: Body weight and DEXA body composition in aging intact and ovariectomized rats treated with polypeptide. As to conditions: for increase in bone mineral content / increase in body fat content: DEXA. It counts as in vivo, female Sprague-Dawley rats. The procedure: Experiments were conducted using female Sprague-Dawley rats that were about 5 months old at the beginning of the experiments. The rats were obtained from Vivarium of the University of Toronto, Mississauga, Ontario, Canada.
The rats were housed in pairs in either a standard shoebox cage 15 cm in height (low cage) or a cage with 22 cm height (tall cage). Humidity was maintained at 50%; temperature 22° C.; dark/light cycle of 12 hours. The rats were fed Standard Purina Rat Chow (unlimited daily supply) and tap water ad libitum.
Ovariectomies were performed under general isofluorane anaesthesia. A 1.5 cm dorsal midline incision was made. The skin and subcutaneous tissue were separated by blunt dissection. A small incision was made on either side in the posterior abdominal muscle wall (approximately 0.5 cm) to expose the ovaries. The ovaries were removed together with the proximal ends of the Fallopian tubes after the ligation of the ovarian arteries. The wounds in the abdominal muscle wall were not stitched. The dorsal skin wound was closed by three surgical wound clips. Tamgesic (0.2 ml) was given subcutaneously for the relief of pain immediately after the operation.
Body weight measurements were made by direct weighing with an electronic balance (to 0.01 g) and by DEXA measurement, Instrument: Hologic 4500A with program for regional measurement for small animals. The animals were scanned supine under general isofluorane anaesthesia. The whole body was scanned including the whole tail. The weights for the mineral content, the fat content and the lean body mass were summed to obtain total body weight.
Non-treated (control) animals were injected subcutaneously daily with 400 μL of 20 mM sodium acetate (pH 4.5) 5 days per week. Treated animals were injected subcutaneously with 300 nmoles per kg of body weight of the test polypeptide (SEQ ID NO:1) in 400 μL of 20 mM sodium acetate (pH 4.5) daily five days per week. The treatment period was nine months. The material, chemically synthesized, was obtained from the Protein DNA Core facility of Queen's University, Kingston, Ontario, Canada. Purification, by HPLC, indicated the test compound to be at least 95% pure.
DEXA measurements were evaluated as an indication of body composition. Through the attenuation of X-ray energy DEXA measurements provide an indication of the mass of various body tissues. In the Hologic DEXA instrument, the program measures the mass of bone tissue, fat and lean body mass (largely muscle mass). The sum of these measured masses represents total body mass. If this proposition is correct, then the total body mass measured by DEXA and measured directly by balance will be the same. Over the course of these experiments, 677 paired measurements of the body weight were made using the two methods. The results obtained (FIG. 1) indicate that there is a close relationship between the DEXA measurements and the measurements. It was thus concluded that body composition could be assessed using DEXA measurements.
Eight groups of rats were treated as follows:
Ovariectomies were performed at the age of 5 months. The ovariectomized animals were allowed to lose bone for two months following ovariectomy before the treatment began. A baseline measurement was made immediately prior to operation. Another pretreatment baseline measurement was made at the beginning of treatment, i.e. two months after ovariectomization. Measurements were made approximately monthly thereafter. At the end of the experiments, all animals were sacrificed by carbon dioxide narcosis.
Procedures were carried out according to the following schedule: […]

With “Xaa1-Thr-GIn-Glu-His-Thr-Ala-Glu-Cys-Xaa10, where Xaa1 is N-acetyl arginine and Xaa10 is lysinamide (Ac-RTQEHTAECK-NH2) [SEQ ID NO:1, 10-mer, protected at both ends]”, under “all groups of rats (intact and ovariectomized, treated and untreated), 10-month experimental period, FIGS. 6A to 7B”, the “change in lean body mass” value was “relatively small change”. The “increase in bone mineral content” value runs as follows: (intact rats, FIG. 8) “attenuation of the increase”; (ovariectomized rats, FIG. 9) “attenuation of the increase”. Besides, the “increase in body fat content” value is, setting by setting: (intact rats, vs untreated (control) rats, reduction greatest in tall cages, FIG. 4) “reduced”; (ovariectomized rats housed in low cages, FIG. 5) “less so”; (ovariectomized rats housed in taller cages, FIG. 5) “significantly smaller increase”. In addition, where the note is “intact rats, tall and low cages, 300 nmoles per kg s.c. daily five days per week, vs untreated, FIG. 2”, the “age-related gain in total body weight” value is given as “lower age-related gain”. Besides, under “intact rats, tall and low cages, vs untreated, FIGS. 10 and 11”, the “change in BMC/BW ratio with time” value is “changed much less”. Also, the “change in LBM/BW ratio with time” value (intact rats, tall and low cages, vs untreated, FIGS. 14 and 15) is on record as “changed much less”. The “attenuating effect on change in LBM/BW ratio over time” value (ovariectomized rats compared with intact rats, FIGS. 14 to 17) was “greater for intact rats than it was for ovariectomized rats”. Besides, the overall weight gain entry (ovariectomized rats, tall and low cages, 300 nmoles per kg s.c. daily five days per week, vs untreated, FIG. 3) is given as “relative decrease in overall weight gain”. Also, the “attenuating effect on decrease in BMC/BW ratio with time” value (ovariectomized rats, tall and low cages, compared with intact rats, FIGS. 12 and 13) is given as “less pronounced”.
